This note sets out measurements from patent publication US20230373939A1 (VERTEX PHARMACEUTICALS INCORPORATED, priority 2020, published 2023).

Like-named read-outs stand apart in the source and are kept apart here. Where only a bound is given, the exact number is not on record here.

The target in this assay is T1, F508del in NIH 3T3 cells (Homo sapiens, UniProt P13569, DEL508-508).
T1 construct: expressed in transfected cells
The assay can be described thus: 3T3 assay: membrane potential optical assay for F508del correction. Type of assay: cell-based. The source says: 1. Membrane Potential Optical Methods for Assaying F508del Modulation Properties of Compounds
The assay utilizes fluorescent voltage sensing dyes to measure changes in membrane potential using a fluorescent plate reader (e.g., FLTPR III, Molecular Devices, Inc.) as a readout for increase in functional F508del in NIH 3T3 cells. The driving force for the response is the creation of a chloride ion gradient in conjunction with channel activation by a single liquid addition step after the cells have previously been treated with compounds and subsequently loaded with a voltage sensing dye.
2. Identification of Corrector Compounds
To identify correctors of F508del, a single-addition HTS assay format was developed. This HTS assay utilizes fluorescent voltage sensing dyes to measure changes in membrane potential on the FLIPR III as a measurement for increase in gating (conductance) of F508del in F508del NUT 3T3 cells. The F508del NUT 3T3 cell cultures were incubated with the corrector compounds at a range of concentrations for 18-24 hours at 37° C., and subsequently loaded with a redistribution dye. The driving force for the response is a Cl^− ion gradient in conjunction with channel activation with forskolin in a single liquid addition step using a fluorescent plate reader such as FLIPR III.
Bath Solution #1: (in mM) NaCl 160, KCl 4.5, CaCl2 2, MgCl2 1, HEPES 10, pH 7.4 with NaOH.
Chloride-free bath solution: Chloride salts in Bath Solution #1 (above) are substituted with gluconate salts.
NIH3T3 mouse fibroblasts stably expressing F508del were used for optical measurements of membrane potential. The cells were maintained at 37° C. in 5% CO2 and 90% humidity in Dulbecco's modified Eagle's medium supplemented with 2 mM glutamine, 10% fetal bovine serum, 1×NEAA, b-ME, 1×pen/strep, and 25 mM HEPES in 175 cm^2 culture flasks. For all optical assays, the cells were seeded at ˜20,000/well in 384-well Matrigel-coated plates. For the correction assays, the cells were cultured at 37° C. with and without compounds for 16-24 hours.

The mark [1] stands for this setting: NIH3T3, NIH 3T3 cells, F508del, read-out: 3T3 Max Activity (%).
Setting [2] is: NIH 3T3 cells, F508del, read-out: 3T3 EC50.
Setting [3] is: NIH3T3, read-out: 3T3 Max Activity (%).

T1 sequence (P13569 with tags, fused parts or gaps DEL508-508): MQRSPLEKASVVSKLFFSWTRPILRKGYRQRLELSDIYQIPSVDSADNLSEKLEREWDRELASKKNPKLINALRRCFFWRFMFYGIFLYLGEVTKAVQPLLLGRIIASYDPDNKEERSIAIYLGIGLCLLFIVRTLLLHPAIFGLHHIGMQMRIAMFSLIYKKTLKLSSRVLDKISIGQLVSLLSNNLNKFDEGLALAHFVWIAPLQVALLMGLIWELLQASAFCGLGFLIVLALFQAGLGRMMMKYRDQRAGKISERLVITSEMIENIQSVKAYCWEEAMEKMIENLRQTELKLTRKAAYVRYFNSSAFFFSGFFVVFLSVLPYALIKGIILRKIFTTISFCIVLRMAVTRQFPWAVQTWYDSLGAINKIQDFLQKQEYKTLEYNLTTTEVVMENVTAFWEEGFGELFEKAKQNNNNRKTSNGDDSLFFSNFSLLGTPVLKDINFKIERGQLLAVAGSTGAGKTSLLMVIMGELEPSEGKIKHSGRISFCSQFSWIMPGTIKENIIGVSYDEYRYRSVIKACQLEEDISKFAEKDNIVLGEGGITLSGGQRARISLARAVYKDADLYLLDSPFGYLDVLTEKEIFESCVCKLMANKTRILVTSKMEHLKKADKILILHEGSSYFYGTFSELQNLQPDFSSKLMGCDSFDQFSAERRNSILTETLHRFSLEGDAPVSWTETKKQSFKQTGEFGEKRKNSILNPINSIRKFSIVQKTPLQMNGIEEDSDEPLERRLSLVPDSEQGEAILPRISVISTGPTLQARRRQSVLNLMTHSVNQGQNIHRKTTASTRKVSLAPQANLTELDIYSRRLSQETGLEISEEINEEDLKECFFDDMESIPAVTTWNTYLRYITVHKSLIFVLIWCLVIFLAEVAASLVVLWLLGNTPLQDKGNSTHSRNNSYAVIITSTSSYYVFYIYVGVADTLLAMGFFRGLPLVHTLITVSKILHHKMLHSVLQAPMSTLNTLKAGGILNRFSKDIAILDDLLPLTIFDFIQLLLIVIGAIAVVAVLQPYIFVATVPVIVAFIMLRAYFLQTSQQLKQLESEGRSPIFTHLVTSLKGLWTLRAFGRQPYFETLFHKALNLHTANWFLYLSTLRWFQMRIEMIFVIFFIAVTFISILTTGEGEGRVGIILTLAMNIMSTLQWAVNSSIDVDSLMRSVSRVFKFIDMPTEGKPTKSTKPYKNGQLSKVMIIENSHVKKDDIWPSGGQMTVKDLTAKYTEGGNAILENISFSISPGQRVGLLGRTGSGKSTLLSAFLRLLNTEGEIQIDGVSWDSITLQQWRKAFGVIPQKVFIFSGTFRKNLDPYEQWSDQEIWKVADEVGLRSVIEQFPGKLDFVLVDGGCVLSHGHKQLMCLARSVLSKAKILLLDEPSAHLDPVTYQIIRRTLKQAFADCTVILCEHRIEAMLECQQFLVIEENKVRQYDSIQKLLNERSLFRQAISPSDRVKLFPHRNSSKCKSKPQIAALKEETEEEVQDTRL

`CCOC(=O)c1nc(NS(=O)(=O)c2ccccc2)sc1-c1ccccc1` [Compound 41, ethyl 2-(benzenesulfonamido)-5-phenyl-thiazole-4-carboxylate]: under setting [1], the Emax lay in the range of 30 to 60%. Under setting [2], the EC50 (in general, the concentration needed to bring the measured effect to its halfway point) lay within 1 to 3 µM.

As to `COc1ccccc1-c1cn(-c2cccc(Cl)c2)nc1NS(=O)(=O)c1ccccc1` [Compound 92, N-[1-(3-chlorophenyl)-4-(2-methoxyphenyl)pyrazol-3-yl]benzenesulfonamide], under setting [1], the Emax is 30 to 60%. Moreover, under setting [2], the EC50 was in the range of 1 to 3 µM.

Turning to `CC1CN(c2cc(NS(=O)(=O)c3ccccc3)nc(Oc3ccccc3)n2)C(C)(C)C1` (stereo not drawn) [Compound 128, N-[2-phenoxy-6-(2,2,4-trimethylpyrrolidin-1-yl)pyrimidin-4-yl]benzenesulfonamide], under setting [1], the Emax was 30 to 60%. In addition, under setting [2], the EC50 was < 1 µM.

On to `CCCc1ccc(NS(=O)(=O)c2ccccc2)nc1-c1ccc(C)cc1` [Compound 140, N-[5-propyl-6-(p-tolyl)-2-pyridyl]benzenesulfonamide], for which the Emax under setting [1] was > 60%. Further, the EC50 under setting [2] was 1 to 3 µM.

For the compound `COc1ccccc1Nc1nc(-c2sc(NS(=O)(=O)c3ccccc3)nc2C)cs1` [Compound 29, N-[5-[2-(2-methoxyanilino)thiazol-4-yl]-4-methyl-thiazol-2-yl]benzenesulfonamide], under setting [1], the Emax is 30 to 60%. Also, the concentration giving a half-maximal response (EC50) under setting [2] was 3 to 30 µM.

Turning to `O=S(=O)(Nc1cc(-c2ccccc2)cc(Oc2ccccc2)n1)c1ccccc1` [Compound 142, N-(6-phenoxy-4-phenyl-2-pyridyl)benzenesulfonamide], the Emax under setting [1] was > 60%. Moreover, the half-maximal effective concentration (EC50) under setting [2] was < 1 µM.

Turning to `Cc1cc(NS(=O)(=O)c2ccccc2)nc(-c2cc(C)ccc2C)c1` [Compound 135, N-[6-(2,5-Dimethylphenyl)-4-methyl-2-pyridyl]benzenesulfonamide], the Emax under setting [1] was > 60%. Also, the EC50 under setting [2] lay in the range of 1 to 3 µM.

Take `O=S(=O)(Nc1nn(-c2cccc(Cl)c2)cc1C1CCCCC1)c1ccccc1` [Compound 83, N-[1-(3-chlorophenyl)-4-cyclohexyl-pyrazol-3-yl]benzenesulfonamide]: the Emax under setting [1] is < 30%.

For `Cc1cc(C)c(-n2nc(NS(=O)(=O)c3ccccc3)cc2CC(C)C)c(C)c1` [Compound 52, N-[5-isobutyl-1-(2,4,6-trimethylphenyl)pyrazol-3-yl]benzenesulfonamide], the Emax under setting [1] is > 60%. Moreover, the EC50 under setting [2] lay within 1 to 3 µM.

For `O=S(=O)(Nc1ncc(Cc2ccccc2)s1)c1ccccc1` [Compound 32, N-[5-benzyl-thiazol-2-yl]benzenesulfonamide], the Emax under setting [1] was 30 to 60%.

For the compound `Cc1cc(C)c(-n2nc(NS(=O)(=O)c3ccccc3)cc2C(C)(C)C)c(C)c1` [Compound 53, N-[5-tert-butyl-1-(2,4,6-trimethylphenyl)pyrazol-3-yl]benzenesulfonamide], the Emax under setting [1] is < 30%.

In the case of `CCCN(C)C(=O)c1sc(NS(=O)(=O)c2ccccc2)nc1-c1ccccc1` [Compound 38, 2-(benzenesulfonamido)-N-methyl-4-phenyl-N-propyl-thiazole-5-carboxamide], the Emax under setting [1] was < 30%.

Take `C=C(C)c1cn(-c2cccc(Cl)c2)nc1NS(=O)(=O)c1ccccc1` [Compound 86, N-[1-(3-chlorophenyl)-4-isopropenyl-pyrazol-3-yl]benzenesulfonamide]: the Emax under setting [1] was in the range of 30 to 60%. Also, under setting [2], the EC50 lay in the range of 3 to 30 µM.

For `Cc1nc(NS(=O)(=O)c2ccccc2)sc1-c1ccccc1` [Compound 26, N-(4-methyl-5-phenyl-thiazol-2-yl)benzenesulfonamide], under setting [3], the Emax is > 60%. Also, the EC50 under setting [2] was 1 to 3 µM.

In the case of `CC(C)(C)NC(=O)c1sc(NS(=O)(=O)c2ccccc2)nc1-c1ccccc1` [Compound 36, 2-(benzenesulfonamido)-N-tert-butyl-4-phenyl-thiazole-5-carboxamide], under setting [1], the Emax is < 30%.

As for `COCCNC(=O)c1sc(NS(=O)(=O)c2ccccc2)nc1-c1ccccc1` [Compound 35, 2-(benzenesulfonamido)-N-(2-methoxyethyl)-4-phenyl-thiazole-5-carboxamide], the Emax under setting [1] is < 30%.

Take `O=S(=O)(Nc1nc(-c2ccccc2)c(Oc2ccccc2)s1)c1ccccc1` [Compound 11, N-(5-phenoxy-4-phenyl-thiazol-2-yl)benzenesulfonamide]: the Emax under setting [1] was < 30%.

Regarding `Cc1ccc(-n2nc(NS(=O)(=O)c3ccccc3)cc2C(C)(C)C)cc1` [Compound 80, N-[5-tert-butyl-1-(p-tolyl)pyrazol-3-yl]benzenesulfonamide], under setting [1], the Emax is 30 to 60%.

As to `O=S(=O)(Nc1ccn(Cc2ccccc2)n1)c1ccccc1` [Compound 102, N-(1-benzylpyrazol-3-yl)benzenesulfonamide], under setting [3], the Emax was < 30%.

In turn, `COc1cccc(-c2cc(NS(=O)(=O)c3ccccc3)nn2-c2c(C)cc(C)cc2C)c1` [Compound 50, N-[5-(3-methoxyphenyl)-1-(2,4,6-trimethylphenyl)pyrazol-3-yl]benzenesulfonamide] displayed an EC50 of 1 to 3 µM. Under setting [3], the Emax was > 60%.

For `O=S(=O)(Nc1cc(Oc2ccccc2)cc(Oc2ccccc2)n1)c1ccccc1` [Compound 133, N-(4,6-Diphenoxy-2-pyridyl)benzenesulfonamide], the Emax under setting [1] is > 60%. Moreover, the concentration giving a half-maximal response (EC50) under setting [2] was 1 to 3 µM.

For the compound `CC(C)c1sc(NS(=O)(=O)c2ccccc2)nc1-c1ccccc1` [Compound 17, N-(5-isopropyl-4-phenyl-thiazol-2-yl)benzenesulfonamide], under setting [1], the Emax is > 60%. Besides, the concentration for a half-maximal effect (EC50) under setting [2] lay in the range of 3 to 30 µM.

With `Cc1sc(NS(=O)(=O)c2ccccc2)nc1-c1ccc2c(c1)OCCO2` [Compound 22, N-[4-(2,3-dihydro-1,4-benzodioxin-6-yl)-5-methyl-thiazol-2-yl]benzenesulfonamide], under setting [1], the Emax was in the range of 30 to 60%. Moreover, the EC50 under setting [2] lay in the range of 3 to 30 µM.

Consider `Cc1ccc(-c2cn(Cc3ccccc3)nc2NS(=O)(=O)c2ccccc2)cc1` [Compound 101, N-[1-benzyl-4-(p-tolyl)pyrazol-3-yl]benzenesulfonamide], for which the Emax under setting [1] was 30 to 60%. Moreover, the concentration giving a half-maximal response (EC50) under setting [2] fell in the range of 1 to 3 µM.

On to `Cc1cccc(-c2cc(NS(=O)(=O)c3ccccc3)nn2-c2c(C)cc(C)cc2C)c1` [Compound 48, N-[5-(m-tolyl)-1-(2,4,6-trimethylphenyl)pyrazol-3-yl]benzenesulfonamide], for which, under setting [3], the Emax is > 60%. Besides, the EC50 under setting [2] was < 1 µM.

Consider `Cc1ccc(-c2nc(NS(=O)(=O)c3ccccc3)oc2-c2ccc(C)cc2)cc1` [Compound 3, N-[4,5-bis(p-tolyl)oxazol-2-yl]benzenesulfonamide], for which the Emax under setting [3] was > 60%. In addition, the EC50 under setting [2] fell in the range of 1 to 3 µM.

On to `Cc1ccc(C)c(-c2nc(NS(=O)(=O)c3ccccc3)ccc2C)c1` [Compound 138, N-[6-(2,5-Dimethylphenyl)-5-methyl-2-pyridyl]benzenesulfonamide], for which the Emax under setting [1] is > 60%. Also, the EC50 under setting [2] lay in the range of 1 to 3 µM.

For the compound `Cc1cccc(C)c1-c1cnc(NCc2ccccc2)c(NS(=O)(=O)c2ccccc2)n1` [Compound 119, N-[3-(benzylamino)-6-(2,6-dimethylphenyl)pyrazin-2-yl]benzenesulfonamide], the Emax under setting [1] is 30 to 60%. Moreover, the EC50 under setting [2] is 1 to 3 µM.

With `C=C(C)c1cn(Cc2ccccc2)nc1NS(=O)(=O)c1ccccc1` [Compound 105, N-(1-benzyl-4-isopropenyl-pyrazol-3-yl)benzenesulfonamide], the Emax under setting [1] was < 30%.

As for `CCCc1sc(NS(=O)(=O)c2ccccc2)nc1-c1ccc(OC)cc1` [Compound 20, N-[4-(4-methoxyphenyl)-5-propyl-thiazol-2-yl]benzenesulfonamide], the Emax under setting [1] was > 60%. The EC50 under setting [2] fell in the range of 1 to 3 µM.

For `C=C(C)c1cn(-c2c(C)cc(C)cc2C)nc1NS(=O)(=O)c1ccccc1` [Compound 97, N-[4-isopropenyl-1-(2,4,6-trimethylphenyl)pyrazol-3-yl]benzenesulfonamide], the Emax under setting [1] was < 30%.

As to `CC(C)Oc1nc(NS(=O)(=O)c2ccccc2)nc(-c2ccccc2)n1` [Compound 124, N-(4-isopropoxy-6-phenyl-1,3,5-triazin-2-yl)benzenesulfonamide], under setting [1], the Emax lay within 30 to 60%. The concentration giving a half-maximal response (EC50) under setting [2] lay within 3 to 30 µM.

On to `Cc1ccc(C)c(-c2nc(NS(=O)(=O)c3ccccc3)cc(C)c2C)c1` [Compound 139, N-[6-(2,5-Dimethylphenyl)-4,5-dimethyl-2-pyridyl]benzenesulfonamide], for which, under setting [1], the Emax is > 60%. In addition, the concentration for a half-maximal effect (EC50) under setting [2] lay in the range of 1 to 3 µM.

Turning to `CC(C)Cc1cn(-c2cccc(Cl)c2)nc1NS(=O)(=O)c1ccccc1` [Compound 81, N-[1-(3-chlorophenyl)-4-isobutyl-pyrazol-3-yl]benzenesulfonamide], the Emax under setting [1] was < 30%.

As for `Cc1cc(C)c(-n2cc(C(C)C)c(NS(=O)(=O)c3ccccc3)n2)c(C)c1` [Compound 98], under setting [1], the Emax is < 30%.
